In experiment [1] the test system is liver cancer cells. The experiment is described as follows: cell experiments: survival and death rate of cancer cells added with the short-chain peptide. The format is cell-based. From the text:
The percent of normal cancer cells 1 is equal to the number of normal cancer cells divided by the summation of the number of normal cancer cells, the number of interphase cancer cells and the number of mitotic phase cancer cells. The percent of interphase cancer cells 2 is equal to the number of interphase cancer cells divided by the summation of the number of normal cancer cells, the number of interphase cancer cells and the number of mitotic phase cancer cells. The percent of mitotic phase cancer cells 3 is equal to the number of mitotic phase cancer cells divided by the summation of the number of normal cancer cells, the number of interphase cancer cells and the number of mitotic phase cancer cells. The percent of dead cancer cells 4 is equal to the number of dead cancer cells divided by the summation of the number of normal cancer cells, the number of interphase cancer cells, the number of mitotic phase cancer cells and the number of dead cancer cells.
In cell experiments, the survival rate of cancer cells added with none of the short-chain peptide is as high as 95%. Apoptosis of cancer cells begins as soon as the short-chain peptide is added to cancer cells; it's obviously found out that after 24 hours, the survival rate of cancer cells is lowered to about 25% and the death rate is raised to about 70%, 35 to 40 times of normal death rate.
(§1) In Attachment, Photos 1˜3 show the cell cycles of liver cancer cells respectively added and not added with the particular short-chain peptide in cell experiments. Photos 4 and 5 show the growth of cancer cells respectively added and not added with the particular short-chain peptide in animal experiments.

For experiment [2], the system named is cancer cells. The experiment is described as follows: animal experiments: growth of cancer cells added with the short-chain peptide. It counts as in vivo. As to conditions: after having been added with the short-chain peptide for a certain period of time.
Text: as §1

“RGDLASLQKAAHGHVRKAFKSHVSTLTDLQPYMRQFVAHLQETSPLRD (RGDLASLQKAAHGHVRKAFKSHVSTLTDLQPYMRQFVAHLQETSPLRD) [short-chain peptide, unique short-chained peptide composed of 48 amino acids]”: in experiment [1] (cancer cells added with the short-chain peptide), the “effect on cell cleavage of cancer cells” value is “stagnating on the stage of cell cleavage for being further induced to apoptosis to death”. Also, the “death rate of cancer cells” value in experiment [1] (cell experiments, after 24 hours with the short-chain peptide) was “about 70%”. In experiment [1] (cell experiments, after 24 hours with the short-chain peptide (without peptide 95%)), the “survival rate of cancer cells” value is recorded as “about 25%”. Also, the “death rate of the liver cancer cells” value in experiment [1] (liver cancer cells, after 24-hour culture, repeated experiments) is listed as “about 70%”. Also, the “death of cancer cells in animal experiments (Photo 5)” value in experiment [2] was “die massively via apoptosis”.

The values are drawn from patent US20100035802A1, “PARTICULAR SHORT-CHAIN PEPTIDE CANCER DRUG AND ITS TREATMENT” (priority 2007, published 2010).
